Measured values reported in PubChem BioAssay AID248 (DTP/NCI, 2004).
Several values for one entry are separate records, joined by “and”; a condition that tells them apart may be missing. Equal values may be shown once. Toxic doses and inconclusive results are not listed.

Tested on: L1210 leukemia ip in BDF1 mice, survival T/C
Experiment: NCI In Vivo Anticancer Drug Screen. Data for tumor model L1210 Leukemia (intraperitoneal) in B6D2F1 (BDF1) mice
Conditions: endpoint: mean survival time, higher = longer survival
Outline: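 Transplantable tumor model; survival measured in treated vs vehicle control mice. Value = treated/control.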

[1] = dose: 50.0 mg/kg/injection, schedule: Q01DX001 (ip), vehicle: carboxymethylcellulose (CMC)
[2] = dose: 100.0 mg/kg/injection, schedule: Q01DX001 (ip), vehicle: carboxymethylcellulose (CMC)
[3] = dose: 200.0 mg/kg/injection, schedule: Q01DX001 (ip), vehicle: carboxymethylcellulose (CMC)
[4] = dose: 300.0 mg/kg/injection, schedule: Q01DX001 (ip), vehicle: carboxymethylcellulose (CMC)
[5] = dose: 400.0 mg/kg/injection, schedule: Q01DX001 (ip), vehicle: carboxymethylcellulose (CMC)
[6] = dose: 100.0 mg/kg/injection, schedule: Q04DX003 (ip), vehicle: Klucel (hydroxypropylcellulose) (HPC)
[7] = dose: 200.0 mg/kg/injection, schedule: Q04DX003 (ip), vehicle: Klucel (hydroxypropylcellulose) (HPC)
[8] = dose: 400.0 mg/kg/injection, schedule: Q04DX003 (ip), vehicle: Klucel (hydroxypropylcellulose) (HPC)
[9] = dose: 100.0 mg/kg/injection, schedule: Q01DX009 (ip), vehicle: Klucel (hydroxypropylcellulose) (HPC)
[10] = dose: 200.0 mg/kg/injection, schedule: Q01DX009 (ip), vehicle: Klucel (hydroxypropylcellulose) (HPC)
[11] = dose: 400.0 mg/kg/injection, schedule: Q01DX009 (ip), vehicle: Klucel (hydroxypropylcellulose) (HPC)
[12] = dose: 100.0 mg/kg/injection, schedule: Q04DX002 (ip), vehicle: saline with Tween-80
[13] = dose: 200.0 mg/kg/injection, schedule: Q04DX002 (ip), vehicle: saline with Tween-80
[14] = dose: 400.0 mg/kg/injection, schedule: Q04DX002 (ip), vehicle: saline with Tween-80
[15] = dose: 50.0 mg/kg/injection, schedule: Q01DX009 (ip), vehicle: saline with Tween-80
[16] = dose: 100.0 mg/kg/injection, schedule: Q01DX009 (ip), vehicle: saline with Tween-80
[17] = dose: 25.0 mg/kg/injection, schedule: Q01DX009 (ip), vehicle: saline with Tween-80
[18] = dose: 50.0 mg/kg/injection, schedule: Q04DX003 (ip), vehicle: saline with Tween-80
[19] = dose: 100.0 mg/kg/injection, schedule: Q04DX003 (ip), vehicle: saline with Tween-80
[20] = dose: 200.0 mg/kg/injection, schedule: Q04DX003 (ip), vehicle: saline with Tween-80
[21] = dose: 400.0 mg/kg/injection, schedule: Q04DX003 (ip), vehicle: saline with Tween-80

CCCCCCCC[N+](CC)(CC)CCOC(=O)C(C1CCCC1)C1CCCC1
T/C (dose: 0.25 mg/kg/injection, schedule: Q01DX015 (ip), vehicle: saline): 91 % of control
T/C (dose: 0.5 mg/kg/injection, schedule: Q01DX015 (ip), vehicle: saline): 91 % of control
T/C (dose: 1.0 mg/kg/injection, schedule: Q01DX015 (ip), vehicle: saline): 88 % of control
T/C (dose: 1.25 mg/kg/injection, schedule: Q01DX009 (ip), vehicle: saline): 95 % of control
T/C (dose: 2.0 mg/kg/injection, schedule: Q01DX015 (ip), vehicle: saline): 86 % of control
T/C (dose: 2.5 mg/kg/injection, schedule: Q01DX009 (ip), vehicle: saline): 102 % of control
T/C (dose: 2.5 mg/kg/injection, schedule: Q04DX003 (ip), vehicle: saline): 94 % of control
T/C (dose: 5.0 mg/kg/injection, schedule: Q04DX003 (ip), vehicle: saline): 94 % of control

O=NN1C(=O)N[C@@H]2[C@H]1CS[C@@H]2CCCCC(=O)O
T/C [1]: 101 % of control
T/C [2]: 96 % of control
T/C [3]: 101 % of control
T/C [4]: 95 % of control
T/C [5]: 95 % of control
T/C (dose: 600.0 mg/kg/injection, schedule: Q01DX001 (ip), vehicle: carboxymethylcellulose (CMC)): 87 % of control
T/C (dose: 800.0 mg/kg/injection, schedule: Q01DX001 (ip), vehicle: carboxymethylcellulose (CMC)): 90 % of control

CCOC(=O)c1cnc(SC)nc1NNc1nc(SC)ncc1C(=O)OCC
T/C [6]: 93 % of control
T/C [7]: 90 % of control
T/C [8]: 93 % of control

O=P(NO)(Oc1ccccc1)Oc1ccccc1
T/C [1]: 101 % of control
T/C [2]: 95 % of control
T/C [3]: 100 % of control

Nc1ncc(C(=O)O)s1
T/C [9]: 98 % of control
T/C [10]: 103 % of control
T/C [11]: 87 % of control

CS(=O)(=O)n1c(CCl)nc2ccccc21
T/C (dose: 50.0 mg/kg/injection, schedule: Q01DX001 (ip), vehicle: saline): 96 % of control
T/C (dose: 100.0 mg/kg/injection, schedule: Q01DX001 (ip), vehicle: saline): 104 % of control
T/C (dose: 200.0 mg/kg/injection, schedule: Q01DX001 (ip), vehicle: saline): 102 % of control
T/C (dose: 400.0 mg/kg/injection, schedule: Q01DX001 (ip), vehicle: saline): 102 % of control

Cc1c2c(cc3c1CCC1(C)C3=CCC1C(C)CCC(C)C(C)C)CCCC2 (configuration not stated)
T/C (dose: 100.0 mg/kg/injection, schedule: Q01DX001 (ip), vehicle: saline with Tween-80): 93 % of control
T/C (dose: 200.0 mg/kg/injection, schedule: Q01DX001 (ip), vehicle: saline with Tween-80): 95 % of control
T/C (dose: 400.0 mg/kg/injection, schedule: Q01DX001 (ip), vehicle: saline with Tween-80): 91 % of control

S=C(Nc1ccccc1)Nc1ccc2ccccc2c1
T/C [6]: 100 % of control
T/C [7]: 94 % of control
T/C [8]: 110 % of control

O=c1[nH]c2ccccc2c2cc3ccccc3cc12
T/C (dose: 88.8 mg/kg/injection, schedule: Q01DX001 (ip), vehicle: carboxymethylcellulose (CMC)): 93 % of control and 102 % of control
T/C [2]: 93 % of control
T/C (dose: 133.4 mg/kg/injection, schedule: Q01DX001 (ip), vehicle: carboxymethylcellulose (CMC)): 95 % of control and 102 % of control
T/C [4]: 100 % of control and 88 % of control
T/C [5]: 93 % of control

NSc1ccc(N)s1
T/C [12]: 108 % of control
T/C [13]: 101 % of control
T/C [14]: 108 % of control

N#Cc1ccc(NC(=O)N(CCCl)N=O)cc1
T/C (dose: 1.0 mg/kg/injection, schedule: Q01DX009 (ip), vehicle: saline): 150 % of control
T/C (dose: 1.56 mg/kg/injection, schedule: Q01DX009 (ip), vehicle: saline): 161 % of control
T/C (dose: 6.25 mg/kg/injection, schedule: Q01DX Z (ip), vehicle: carboxymethylcellulose (CMC)): 160 % of control
T/C (dose: 12.5 mg/kg/injection, schedule: Q01DX Z (ip), vehicle: carboxymethylcellulose (CMC)): 118 % of control
T/C (dose: 25.0 mg/kg/injection, schedule: Q01DX Z (ip), vehicle: carboxymethylcellulose (CMC)): 104 % of control
T/C (dose: 37.5 mg/kg/injection, schedule: Q01DX001 (ip), vehicle: carboxymethylcellulose (CMC)): 152 % of control
T/C (dose: 75.0 mg/kg/injection, schedule: Q01DX001 (ip), vehicle: carboxymethylcellulose (CMC)): 153 % of control
T/C (dose: 150.0 mg/kg/injection, schedule: Q01DX001 (ip), vehicle: carboxymethylcellulose (CMC)): 177 % of control

CC(=O)Nc1ccc(Cc2ccc(NC(C)=O)cc2[N+](=O)[O-])c([N+](=O)[O-])c1
T/C [2]: 105 % of control
T/C [3]: 100 % of control
T/C [5]: 93 % of control

Cc1cccc(NC(=O)c2ccc(Cl)cc2Cl)c1C
T/C [9]: 102 % of control
T/C [6]: 101 % of control
T/C [10]: 91 % of control
T/C [7]: 90 % of control
T/C [11]: 91 % of control
T/C [8]: 93 % of control

Nc1ccc2nc(NCCCO)c3ccccc3c2c1
T/C [6]: 107 % of control
T/C [7]: 113 % of control
T/C [8]: 102 % of control

NCC(OC1CCCCC1)C(Cl)(Cl)Cl (configuration not stated)
T/C [15]: 92 % of control
T/C [16]: 97 % of control

COC1C(COC(C)=O)OC(n2cnc3c(=S)nc[nH]c32)C1OC(C)=O (configuration not stated)
T/C [2]: 114 % of control
T/C [3]: 104 % of control
T/C [5]: 111 % of control

CCCCCCCCOP(OCCCCCCCC)OCCCCCCCC
T/C (dose: 100.0 mg/kg/injection, schedule: Q04DX003 (ip), vehicle: saline): 95 % of control
T/C (dose: 200.0 mg/kg/injection, schedule: Q04DX003 (ip), vehicle: saline): 98 % of control
T/C (dose: 400.0 mg/kg/injection, schedule: Q04DX003 (ip), vehicle: saline): 104 % of control

CC1CCCCN1P(N1CCCCC1C)N1CCCCC1C (configuration not stated)
T/C [12]: 98 % of control
T/C [13]: 98 % of control

CCOC(=O)c1ccc(N(CCC(=O)COC(C)=O)C(C)=O)cc1
T/C [2]: 94 % of control
T/C [3]: 100 % of control
T/C [5]: 102 % of control

COc1cc(OC)c(NC(=O)Nc2cccc(Cl)c2C)cc1Cl
T/C (dose: 12.5 mg/kg/injection, schedule: Q01DX009 (ip), vehicle: saline with Tween-80): 97 % of control and 92 % of control
T/C [17]: 94 % of control and 95 % of control
T/C (dose: 25.0 mg/kg/injection, schedule: Q04DX003 (ip), vehicle: saline with Tween-80): 89 % of control
T/C [15]: 95 % of control and 87 % of control
T/C [18]: 97 % of control
T/C [12]: 86 % of control and 91 % of control
T/C [19]: 92 % of control
T/C (dose: 200.0 mg/kg/injection, schedule: Q01DX009 (ip), vehicle: saline with Tween-80): 89 % of control and 91 % of control
T/C [13]: 87 % of control and 90 % of control
T/C (dose: 400.0 mg/kg/injection, schedule: Q01DX009 (ip), vehicle: saline with Tween-80): 96 % of control and 91 % of control
T/C [14]: 104 % of control and 91 % of control

COC1C=CC=CC=C1
T/C (dose: 15.0 mg/kg/injection, schedule: Q01DX009 (ip), vehicle: saline with Tween-80): 108 % of control
T/C (dose: 30.0 mg/kg/injection, schedule: Q01DX009 (ip), vehicle: saline with Tween-80): 113 % of control
T/C (dose: 60.0 mg/kg/injection, schedule: Q01DX009 (ip), vehicle: saline with Tween-80): 103 % of control

CCOC(=O)c1c(-c2cc(OC)c(OC)c(OC)c2)csc1NC(=O)c1ccccc1
T/C [18]: 89 % of control
T/C [19]: 105 % of control
T/C [20]: 90 % of control
T/C [21]: 90 % of control

[O-][n+]1c2ccccc2nc2cc(Cl)ccc21
T/C [6]: 107 % of control
T/C [7]: 100 % of control
T/C [8]: 96 % of control

COc1ccccc1N1CCN(CC(O)COc2ccccc2C(C)=O)CC1 (configuration not stated)
T/C [17]: 107 % of control
T/C [15]: 105 % of control
T/C [16]: 109 % of control
T/C [19]: 96 % of control

N#CC(C#N)=Cc1ccc2c(c1)CCC2
T/C (dose: 10.0 mg/kg/injection, schedule: Q01DX009 (ip), vehicle: saline with Tween-80): 100 % of control
T/C (dose: 20.0 mg/kg/injection, schedule: Q01DX009 (ip), vehicle: saline with Tween-80): 96 % of control
T/C (dose: 40.0 mg/kg/injection, schedule: Q01DX009 (ip), vehicle: saline with Tween-80): 94 % of control
T/C (dose: 75.0 mg/kg/injection, schedule: Q01DX001 (ip), vehicle: other): 96 % of control
